Read-outs that look alike come from different tables or passages of the source.
Experiments:
Type in all cases: in vivo
Echinochloa crusgalli = experiment: Weeding effect in post-emergence stage (greenhouse pot spray); conditions: Table 2, dose 500 g a.i./ha
Source text: (§1) The activity level criteria for plant damage (i.e., growth control rate) are as follows:
(§2) The above growth control rates are fresh weight control rates.
(§3) Experiment on weeding effect in post-emergence stage: monocotyledonous and dicotyledonous weed seeds (Descurainia sophia, Capsella bursa-pastoris, Abutilon theophrasti, Galium aparine, Stellaria media, Lithospermum arvense, rorippa indica, Alopecurus aequalis, Beckmannia syzigachne, Sclerochloa dura, Phleum paniculatum, Bromus japonicus, Aegilops tauschii, Phalaris arundinacea, Amaranthus retroflexus, Chenopodiaceae, Commelina communis, Sonchus arvensis, convolvulus arvensis, Cirsium setosum, Solanum nigrum, Acalypha australis, Digitaria sanguinalis, Echinochloa crusgalli, Setaria viridis, Setaria glauca, Leptochloa chinensis, Monochoria vaginalis, Sagittaria trifolia, Scirpus juncoides, Cyperus rotundus, Cyperus iria, Cyperus difformis, Fimbristylis, Portulaca oleracea, Xanthium sibiricum, Pharbitis nil) and major crop seeds (wheat, corn, rice, soybean, cotton, oilseed rape, millet, sorghum, potato, sesame, ricinus) were placed in plastic pots filled with soil, then covered with 0.5-2 cm of soil, allowed to grow in a good greenhouse environment. After 2 weeks of sowing, the test plants were treated in the 2 to 3 leaf stage. The tested compounds of the present invention were respectively dissolved in acetone, then added with Tween 80 and 1.5 liter/ha of emulsifiable concentrate of methyl oleate as synergist, diluted with a certain amount of water to obtain a solution with a certain concentration, and sprayed with a spray tower onto the plants. After the application, the plants were cultured for 3 weeks in the greenhouse, and then the experimental results of the weeding were counted. […]

Digitaria sanguinalis = experiment: as above; conditions: Table 2, dose 500 g a.i./ha
Source text: as §1, §2, §3

Abutilon theophrasti = experiment: as above; conditions: Table 2, dose 500 g a.i./ha
Source text: as §1, §2, §3

weeds = experiment: Actual control effects and combined effects of mixtures of active ingredients (i) and (ii), stem-leaf treatment, Gowing method; conditions: 20 days
Method: According to the actual control effect and the property of the herbicides, the balance of the formula and other factors, the optimal ratio was determined. In the calculation formula: X represents the fresh weight inhibition rate when the active ingredient (i) is used in an amount of P; and Y represents the fresh weight inhibition rate when the active ingredient (ii) is used in an amount of Q. The statistical results are shown in Tables 9-11 below.

[1] = Monochoria vaginalis, (ii) 1 g a.i./mu
[2] = 480 h, Echinochloa phyllopogon, (ii) 15 g a.i./mu, stem-leaf treatment, read-out: Control effect of (ii) alone at corresponding dose
[3] = Echinochloa phyllopogon, (ii) 3 g a.i./mu
[4] = Echinochloa phyllopogon, (ii) 15 g a.i./mu
[5] = Echinochloa phyllopogon, (ii) 0.6 g a.i./mu
[6] = Echinochloa phyllopogon, (ii) 0.6 g a.i./mu, stem-leaf treatment

`C#CCSc1c(C(F)(F)F)ccc(C(=O)Nc2nnc(C)o2)c1F` [Compound 1-43] was tested, and the “Echinochloa crusgah (activity level)” value (Echinochloa crusgalli) was 5 (Level 5: growth control rate is above 85%).

In the case of `Cc1nnc(NC(=O)c2ccc(C(F)(F)F)c(SCCF)c2F)o1` [Compound 1-48], the “Digitaria sanguinalis (activity level)” value (Digitaria sanguinalis) is reported as 5 (Level 5: growth control rate is above 85%) and the “Echinochloa crusgah (activity level)” value (Echinochloa crusgalli) is reported as 5 (Level 5: growth control rate is above 85%).

`Cc1nnc(NC(=O)c2ccc(C(F)(F)F)c(SC#N)c2F)o1` [Compound 1-68] was tested, and the “Echinochloa crusgah (activity level)” value (Echinochloa crusgalli) was 5 (Level 5: growth control rate is above 85%).

For `Cc1nnc(NC(=O)c2ccc(C(F)(F)F)c(SCC#N)c2F)o1` [Compound 1-69], the “Echinochloa crusgah (activity level)” value (Echinochloa crusgalli) was 5 (Level 5: growth control rate is above 85%).

With `CC(=O)Sc1c(C(F)(F)F)ccc(C(=O)Nc2nnc(C)o2)c1F` [Compound 1-70] the “Echinochloa crusgah (activity level)” value (Echinochloa crusgalli) was 5 (Level 5: growth control rate is above 85%).

`Cc1nnc(NC(=O)c2ccc(C(F)(F)F)c(S(=O)(=O)C(C)(C)C)c2F)o1` [Compound 1-138] was tested, and the “Digitaria sanguinalis (activity level)” value (Digitaria sanguinalis) was 5 (Level 5: growth control rate is above 85%) and the “Echinochloa crusgah (activity level)” value (Echinochloa crusgalli) was 5 (Level 5: growth control rate is above 85%).

For `Cc1nnc(NC(=O)c2ccc(C(F)(F)F)c([S+]([O-])C3CCCCC3)c2F)o1` (stereo not shown) [Compound 1-394], the “Echinochloa crusgah (activity level)” value (Echinochloa crusgalli) was 5 (Level 5: growth control rate is above 85%).

In the case of `Cc1nnc(NC(=O)c2ccc(C(F)(F)F)c([S+]([O-])CCO)c2F)o1` (stereo not shown) [Compound 1-429], the “Abutilion theophrasti (activity level)” value (Abutilon theophrasti) is reported as 5 (Level 5: growth control rate is above 85%), the “Digitaria sanguinalis (activity level)” value (Digitaria sanguinalis) is reported as 5 (Level 5: growth control rate is above 85%) and the “Echinochloa crusgah (activity level)” value (Echinochloa crusgalli) is reported as 5 (Level 5: growth control rate is above 85%).

In the case of `Cc1nnc(NC(=O)c2ccc(C(F)(F)F)c([S+]([O-])CCCO)c2F)o1` (stereo not shown) [Compound 1-430], the “Abutilion theophrasti (activity level)” value (Abutilon theophrasti) is reported as 5 (Level 5: growth control rate is above 85%), the “Digitaria sanguinalis (activity level)” value (Digitaria sanguinalis) is reported as 5 (Level 5: growth control rate is above 85%) and the “Echinochloa crusgah (activity level)” value (Echinochloa crusgalli) is reported as 5 (Level 5: growth control rate is above 85%).

With `CCOC[S+]([O-])c1c(C(F)(F)F)ccc(C(=O)Nc2nnc(C)o2)c1F` (stereo not shown) [Compound 1-444] the “Echinochloa crusgah (activity level)” value (Echinochloa crusgalli) was 5 (Level 5: growth control rate is above 85%).

In the case of `CC(C)C[S+]([O-])c1c(C(F)(F)F)ccc(C(=O)Nc2nnco2)c1F` (stereo not shown) [Compound 3-20], the “Echinochloa crusgah (activity level)” value (Echinochloa crusgalli) is reported as 5 (Level 5: growth control rate is above 85%).

With `C#CCN(C)c1c(C#N)cnn1-c1nn2c(c1Cl)CCCC2` [Pyraclonil] the “Control effect of (ii) alone at corresponding dose” value (shortened to “Control effect of (ii) alone”) (weeds; Sagittaria trifolia L., (ii) 0.6 g a.i./mu) was 9.3%, the “Control effect of (ii) alone” value (weeds; Sagittaria trifolia L., (ii) 15 g a.i./mu) was 72.5% and the “Control effect of (ii) alone” value (weeds; Sagittaria trifolia, (ii) 15 g a.i./mu, stem-leaf treatment) was 72.5%.

For `CCOC(=O)c1cnn(C)c1S(=O)(=O)NC(=O)Nc1nc(OC)cc(OC)n1` [Pyrazosulfuron-ethyl], the “Control effect of (ii) alone” value (weeds; [1]) was 75.6%, the pest or weed control at 9 g/ha (weeds; Pontederia vaginalis, 480 h, Monochoria vaginalis, (ii) 0.6 g a.i./mu, read-out: Control effect of (ii) alone at corresponding dose) was 54.5% and the pest or weed control at 15 g/ha (weeds; Pontederia vaginalis, 480 h, Monochoria vaginalis, (ii) 1 g a.i./mu, stem-leaf treatment, read-out: Control effect of (ii) alone at corresponding dose) was 75.6%.

`CCCCCCCCSC(=O)Oc1cc(Cl)nnc1-c1ccccc1` [Pyridate] was tested, and the pest or weed control at 27 g/ha (weeds; 480 h, Cyperus difformis, (ii) 1.8 g a.i./mu, read-out: Control effect of (ii) alone at corresponding dose) was 12.9%, the pest or weed control at […] (weeds; 480 h, Cyperus difformis, (ii) 15 g a.i./mu, stem-leaf treatment, read-out: Control effect of (ii) alone at corresponding dose) was 53.2% and the “Control effect of (ii) alone” value (weeds; Cyperus difformis, (ii) 15 g a.i./mu) was 53.2%.

For `Cn1nc(C(F)(F)F)c(CS(=O)(=O)C2=NOC(C)(C)C2)c1OC(F)F` [Pyroxasulfone], the “Control effect of (ii) alone” value (weeds; Monochoria vaginalis, (ii) 9 g a.i./mu) was 34.5%, the pest or weed control at […] (weeds; Pontederia vaginalis, 480 h, Monochoria vaginalis, (ii) 0.5 g a.i./mu, read-out: Control effect of (ii) alone at corresponding dose) was 6.3% and the pest or weed control at 135 g/ha (weeds; Pontederia vaginalis, 480 h, Monochoria vaginalis, (ii) 9 g a.i./mu, stem-leaf treatment, read-out: Control effect of (ii) alone at corresponding dose) was 34.5%.

For `O=C(O)c1c(Cl)ccc2cc(Cl)cnc12` [Quinclorac], the pest or weed control at 45 g/ha (weeds; 480 h, Echinochloa phyllopogon, (ii) 3 g a.i./mu, stem-leaf treatment, read-out: Control effect of (ii) alone at corresponding dose) was 35.2%, the pest or weed control at […] (weeds; [2]) was 52.9% and the “Control effect of (ii) alone” value (weeds; [3]) was 35.2%. For the same compound, the “Control effect of (ii) alone” value (weeds; [4]) was 52.9%.

In the case of `O=C1CCCC(=O)C1C(=O)c1c(Cl)ccc2cc(Cl)cnc12` [Quintrione], the “Control effect of (ii) alone” value (weeds; Digitaria sanguinalis, (ii) 3 g a.i./mu, stem-leaf treatment) is reported as 15.2%, the “Control effect of (ii) alone” value (weeds; [3]) is reported as 15.8% and the “Control effect of (ii) alone” value (weeds; Echinochloa phyllopogon, (ii) 3 g a.i./mu, stem-leaf treatment) is reported as 15.8%. The “Control effect of (ii) alone” value (weeds; Echinochloa phyllopogon, (ii) 30 g a.i./mu) was 66.7% and the “Control effect of (ii) alone” value (weeds; Echinochloa phyllopogon, (ii) 30 g a.i./mu, stem-leaf treatment) was 66.7%.

For `Cc1nn(C)cc1C(=O)Oc1c(C(=O)c2ccc(C(F)(F)F)cc2S(C)(=O)=O)c(C)nn1C` [Shuangzuocaotong], the “Control effect of (ii) alone” value (weeds; Digitaria sanguinalis, (ii) 8 g a.i./mu, stem-leaf treatment) was 75.1%, the “Control effect of (ii) alone” value (weeds; [5]) was 7.8% and the “Control effect of (ii) alone” value (weeds; [6]) was 7.8%. For the same compound, the “Control effect of (ii) alone” value (weeds; Echinochloa phyllopogon, (ii) 8 g a.i./mu) was 70.9% and the “Control effect of (ii) alone” value (weeds; Echinochloa phyllopogon, (ii) 8 g a.i./mu, stem-leaf treatment) was 70.9%.

For `CCNc1nc(NCC)nc(SC)n1` [Simetryn], the pest or weed control at 9 g/ha (weeds; 480 h, Echinochloa phyllopogon, (ii) 0.6 g a.i./mu, stem-leaf treatment, read-out: Control effect of (ii) alone at corresponding dose) was 20.8%, the pest or weed control at […] (weeds; [2]) was 45.3% and the “Control effect of (ii) alone” value (weeds; [5]) was 20.8%. For the same compound, the “Control effect of (ii) alone” value (weeds; [4]) was 45.3%.

For `CS(=O)(=O)c1ccc(C(=O)C2C(=O)CCCC2=O)c(Cl)c1COCC1CCCO1` (stereo not shown) [Tefuryltrione], the “Control effect of (ii) alone” value (weeds; Cyperus difformis, (ii) 1 g a.i./mu) was 37.4%, the “Control effect of (ii) alone” value (weeds; Cyperus difformis, (ii) 1 g a.i./mu, stem-leaf treatment) was 37.4% and the “Control effect of (ii) alone” value (weeds; Cyperus difformis, (ii) 1.8 g a.i./mu) was 63.2%.

For `CCNc1nc(Cl)nc(NC(C)(C)C)n1` [Terbuthylazine], the pest or weed control at 9 g/ha (weeds; 480 h, Echinochloa phyllopogon, (ii) 0.6 g a.i./mu, read-out: Control effect of (ii) alone at corresponding dose) was 0.95%, the pest or weed control at […] (weeds; [2]) was 18.6% and the “Control effect of (ii) alone” value (weeds; [4]) was 18.6%.

In the case of `COc1nc(OC)nc(C(=O)c2cccc(F)c2N(C)S(=O)(=O)C(F)F)n1` [Triafamone], the “Control effect of (ii) alone” value (weeds; Monochoria vaginalis, (ii) 0.5 g a.i./mu) is reported as 16.3%, the “Control effect of (ii) alone” value (weeds; Monochoria vaginalis, (ii) 0.5 g a.i./mu, stem-leaf treatment) is reported as 16.3% and the “Control effect of (ii) alone” value (weeds; [1]) is reported as 29.6%. For the same compound, the “Control effect of (ii) alone” value (weeds; Monochoria vaginalis, (ii) 1 g a.i./mu, stem-leaf treatment) was 29.6%.

With Oxadiargyl the “Control effect of (ii) alone” value (weeds; [5]) was 3.4%, the “Control effect of (ii) alone” value (weeds; [6]) was 3.4% and the “Control effect of (ii) alone” value (weeds; [4]) was 35.3%. For the same compound, the “Control effect of (ii) alone” value (weeds; Echinochloa phyllopogon, (ii) 15 g a.i./mu, stem-leaf treatment) was 35.3%.

With Sanzuohuangcaotong the “Control effect of (ii) alone” value (weeds; Monochoria vaginalis, (ii) 3 g a.i./mu) was 21.5%, the “Control effect of (ii) alone” value (weeds; Monochoria vaginalis, (ii) 3 g a.i./mu, stem-leaf treatment) was 21.5% and the “Control effect of (ii) alone” value (weeds; Monochoria vaginalis, (ii) 6 g a.i./mu) was 40.1%.

— patent US20230041563A1, “N-(1,3,4-OXADIAZOL-2-YL)ARYLCARBOXAMIDES OR SALTS THEREOF, PREPARATION METHODS, HERBICIDAL COMPOSITIONS AND USES THEREOF” (priority 2018, published 2023)
